Results on one molecule are retold here after PMC10497752, “Heparins are potent inhibitors of ectonucleotide pyrophosphatase/phospho-diesterase-1 (NPP1) – a promising target for the immunotherapy of cancer” (Frontiers in Immunology, 2023).

In the test the target is T1, human NTPDase1 (CD39) (Homo sapiens, UniProt P49961).
T1 construct: made in house; host or cells: COS-7 cells
T1 sequence (P49961 1-510): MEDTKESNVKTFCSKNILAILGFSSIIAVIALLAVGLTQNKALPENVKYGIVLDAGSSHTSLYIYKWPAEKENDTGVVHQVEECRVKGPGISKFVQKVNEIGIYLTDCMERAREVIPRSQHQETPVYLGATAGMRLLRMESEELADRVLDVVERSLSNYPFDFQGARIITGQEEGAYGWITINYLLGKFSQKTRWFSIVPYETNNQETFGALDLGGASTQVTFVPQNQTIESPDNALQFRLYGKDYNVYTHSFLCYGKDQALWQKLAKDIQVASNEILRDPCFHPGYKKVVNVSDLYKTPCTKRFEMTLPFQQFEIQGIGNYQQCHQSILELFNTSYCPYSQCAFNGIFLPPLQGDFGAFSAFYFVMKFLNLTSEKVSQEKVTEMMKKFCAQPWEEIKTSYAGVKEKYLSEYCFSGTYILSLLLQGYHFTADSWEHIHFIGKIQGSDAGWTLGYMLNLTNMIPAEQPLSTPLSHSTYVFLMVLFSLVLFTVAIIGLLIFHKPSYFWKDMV
The experiment in a line: NTPDase CE-based assay, NTPDase1. The settings on record: 20 µg/mL (12 µM); read-out: NTPDase1 inhibition, selectivity study. In kind it is biochemical. As to the method:
For monitoring the activity of human NTPDases (subtypes 1, 2, 3 and 8) in the presence of test compounds, a CE-based assay system was used, according to a published procedure ([11], [25]). The following concentrations of test compounds were investigated in initial screening studies: 63 IU/mL of compounds 1 and 2, 30 µM of compound 6. For selectivity studies, the following concentration were employed: 50 IU/mL of 1, 12 µM of 6, and 48 µM of 7. The amount of enzyme was selected according to previously performed enzymatic titration, and adjusted to ensure a 10–20% conversion rate. Enzymes were obtained by transfection of COS-7 cells using plasmids encoding human NTPDase1 (GenBank accession number U87967) ([26]), NTPDase2 (NM_203468) ([27]), a kind gift of Dr. A.F. Knowles (San Diego, CA), NTPDase3 (AF034840) ([28]), a kind gift of Dr. T.L. Kirley (Cincinnati, OH) and human NTPDase8 (AY430414) ([29]) and purified as previously described ([30], [31]). The reaction buffer consisted of 10 mM HEPES, 2 mM CaCl2, and 1 mM MgCl2, pH 7.4. In the CE assay, the selected substrate concentration (ATP) was 100 µM for all studied human NTPDases (-1, -2, -3 and -8). […] The released products were separated by CE and quantified by their UV-absorption at 260 nm with ADP and AMP as external standards, as previously described ([11]); positive and negative controls were included.

By inhibition is commonly meant the relative decrease from the control value, in per cent. Regarding `CO[C@H]1O[C@H](COS(=O)(=O)O)[C@@H](O[C@@H]2O[C@@H](C(=O)O)[C@@H](O[C@H]3O[C@H](COS(=O)(=O)O)[C@@H](O[C@@H]4O[C@H](C(=O)O)[C@@H](O[C@H]5O[C@H](COS(=O)(=O)O)[C@@H](O)[C@H](O)[C@H]5NS(=O)(=O)O)[C@H](O)[C@H]4O)[C@H](OS(=O)(=O)O)[C@H]3NS(=O)(=O)O)[C@H](O)[C@H]2OS(=O)(=O)O)[C@H](O)[C@H]1NS(=O)(=O)O` [Compound 6, Fondaparinux], the inhibition at 12 µM was approximately 35%.
